Experimental findings from PubChem BioAssay AID1508612 are described below.

The data set can be described thus: passive permeability, PAMPA, ADME assay (AID 1508612). The note with it: pH 7.4, 30.0 min, 50.0 µM.

As for `O=C(NCCCNc1nc(Nc2cccc(CN3CCOCC3)c2)ncc1C1CC1)C1CCC1`, the Papp turned out to be 905 ×10⁻⁶ cm/s. `Cc1ccc(S(=O)(=O)Nc2cc(F)ccc2C(=O)Nc2nc(-c3ccccc3)cs2)cc1` yielded a Papp of 244 ×10⁻⁶ cm/s. This Papp is about 3.7-fold lower than that of the compound before.

The compound `CCOc1ccc(CCNC(=O)c2cc3cccnc3n2Cc2cccc(C)n2)cc1OCC` had a Papp of 744 ×10⁻⁶ cm/s.

For `CCOc1ccc(CCNC(=O)c2cc3sccc3n2CCN2CCN(C)CC2)cc1OCC`, the Papp is > 1000 ×10⁻⁶ cm/s. `O=C(Nc1ccccc1-c1cn2c(CN3CCNCC3)csc2n1)c1cnc2ccccc2n1` came in with a Papp of 239 ×10⁻⁶ cm/s. For the compound `CC(=O)NCc1ccc(-c2csc(Nc3cc(C)cc(C)c3)n2)o1`, the Papp is > 1000 ×10⁻⁶ cm/s. Then `COc1ccc(C(=O)CCN(C)C)cc1F`, with 410 ×10⁻⁶ cm/s; and `Cc1noc(C)c1-c1ccc(-c2cc(C(N)=O)c(NC(N)=O)s2)c(O[C@H]2CCNC2)c1`, with < 1 ×10⁻⁶ cm/s.

Consider `O=C1CCCC2=C1C(c1[nH]ncc1Br)N=C(Nc1nc3ccccc3o1)N2` (stereo not drawn), for which the Papp was 797 ×10⁻⁶ cm/s. Then `N#Cc1ccc(-c2ccc(CNc3ccc(C4CCNCC4)cc3)o2)cc1`, with 459 ×10⁻⁶ cm/s; and `CC(C)(C)C1CCc2c(sc(NC(=O)c3ccncc3)c2C(N)=O)C1` (stereo not drawn), with 581 ×10⁻⁶ cm/s. On to `COCCNC(=O)c1ccc(-c2ccc(N3CCCCC3)nc2)cc1`, for which the Papp was > 1000 ×10⁻⁶ cm/s. With `Cc1cc(-c2nnc3n2CCCCC3)c(C)n1-c1cccc2ccccc12` the figure was > 1000 ×10⁻⁶ cm/s; with `O=S(=O)(Nc1nccs1)c1ccc(NCc2cc(F)ccc2O)cc1`, 8.23 ×10⁻⁶ cm/s. With `COc1ccc(-c2nc(CS(=O)CC(=O)N3CCC4(CC3)OCCO4)c(C)o2)cc1` (stereo not drawn) the figure was 91.7 ×10⁻⁶ cm/s; with `Cc1cc(C)nc(NC(=S)N2CCN(c3ccc4nsnc4c3)CC2)c1`, 707 ×10⁻⁶ cm/s. Then `COc1cccc(S(=O)(=O)Nc2cnccc2C(=O)Nc2nc(-c3ccccc3)cs2)c1`, with 696 ×10⁻⁶ cm/s; and `Fc1cnc(-c2ccccc2C(F)F)nc1NCC1CCN(c2cnccn2)C1` (stereo not drawn), with > 1000 ×10⁻⁶ cm/s; and `Cc1nc2ccc(Nc3nc(-c4ccncc4)nc4ccccc34)cc2s1`, with 55.8 ×10⁻⁶ cm/s. In turn, `COc1ccc(Cl)cc1C(=O)Nc1ccc(NC(=O)c2ccco2)cc1` registered an apparent permeability coefficient (Papp) of 971 ×10⁻⁶ cm/s. With `COc1ccc(NC(=O)c2[nH]c(C)c(C(C)=O)c2C)cc1S(=O)(=O)N(C)C` the figure was 329 ×10⁻⁶ cm/s; with `O=C(Nc1ccc(Oc2ccnc3[nH]ccc23)c(F)c1)c1cccn(-c2ccc(F)cc2)c1=O`, 407 ×10⁻⁶ cm/s. In turn, `O=C(/C=C/c1cn(CC(O)CN2CCCCCC2)c2ccccc12)c1ccc(Br)cc1` (stereo not drawn) gave a Papp of 931 ×10⁻⁶ cm/s.

In the case of `Cc1cnccc1-c1nc(Nc2ccc(F)c(F)c2)c2ccccc2n1`, the apparent permeability (Papp) was found to be 31.1 ×10⁻⁶ cm/s. As to `COc1ccc(C2(C(=O)N3CCC(n4cc(-c5nc(C)no5)nn4)CC3)CC2)cc1`, the apparent permeability coefficient (Papp) is 34.9 ×10⁻⁶ cm/s.

Regarding `Cc1cc(Nc2nc(-c3ccncc3)nc3ccccc23)n[nH]1`, the apparent permeability (Papp) worked out at 721 ×10⁻⁶ cm/s. `CN(C)c1ccccc1-c1csc(N2CCC(C(N)=O)CC2)n1` yielded a Papp of 331 ×10⁻⁶ cm/s. On to `CC(=O)NC1CCN(c2nc(-c3ccc(Br)cc3)cs2)CC1`, for which the apparent permeability (Papp) is 789 ×10⁻⁶ cm/s. Then `CC(=O)N1CCN(c2ccc(OCc3nn(C)c(C)c3-c3cccc4c(CCCOc5cc(C)c(Cl)c(C)c5)c(C(=O)O)n(Cc5cccnc5)c34)cc2)CC1`, with 370 ×10⁻⁶ cm/s; and `O=C(O)c1cccc(-n2cccc2/C=C2/NC(=O)N(c3cccc(Cl)c3)C2=O)c1`, with 3.96 ×10⁻⁶ cm/s; and `CCOc1ccc(CCNC(=O)c2cc3ccncc3n2Cc2cccc(C)n2)cc1OCC`, with 3.77 ×10⁻⁶ cm/s.

`CC(=O)Nc1ccc(C(=O)Nc2ccc3c(c2)N(C2CCCC2)C(=O)c2ccccc2S3)cc1` returned an apparent permeability (Papp) of 138 ×10⁻⁶ cm/s. With `CCCOC(=O)c1ccc(Oc2c(-c3ccc(O)cc3O)n[nH]c2C)cc1`, the apparent permeability (Papp) is > 1000 ×10⁻⁶ cm/s. Take `COc1cc(-c2cc3c(nc2-c2ccccc2)nc(C(=O)NC2CCN(C)CC2)n3C)ccn1`: the Papp is > 1000 ×10⁻⁶ cm/s. As to `Cc1ccnc(NC(=S)N2CCN(c3cccc(C(F)(F)F)c3)CC2)c1`, the apparent permeability coefficient (Papp) was > 1000 ×10⁻⁶ cm/s. With `CCc1cccc(NC(=O)c2c(C)oc3nc(C)nc(N4CCCC4)c23)c1`, the Papp was > 1000 ×10⁻⁶ cm/s.

On to `CCOc1ccc(OCC)c(NC(=O)C(NS(=O)(=O)c2ccc(Br)s2)c2ccccc2)c1` (stereo not drawn), for which the Papp is 1.1 ×10⁻⁶ cm/s. With `Brc1ccc(-c2csc(N3CCC(c4nn[nH]n4)CC3)n2)cc1` the figure was 141 ×10⁻⁶ cm/s; with `N#Cc1ccccc1S(=O)(=O)Nc1cnccc1C(=O)Nc1nc(-c2ccccc2)cs1`, 61.8 ×10⁻⁶ cm/s. Then `O=C(NCCc1ccc(OCC(F)(F)F)c(OCC(F)(F)F)c1)c1cc2sccc2n1Cc1ccccc1`, with 24.5 ×10⁻⁶ cm/s; and `Cc1cc(NS(=O)(=O)c2ccc(C(=O)NCc3ccc(Cl)c(Cl)c3)cc2)no1`, with 46.2 ×10⁻⁶ cm/s. `O=C(NC1CCCc2c1[nH]c1ccc(Cl)cc21)c1ccncc1` (stereo not drawn) registered an apparent permeability (Papp) of 7.6 ×10⁻⁶ cm/s. Compared with the last compound, the Papp is about 6.1-fold lower. With `CN1CCN(c2cc(-c3nc(Nc4ccc(F)c(F)c4)c4ccccc4n3)ccn2)CC1` the figure was > 1000 ×10⁻⁶ cm/s.

Turning to `FC(F)(F)Oc1cccc(Nc2nc(-c3ccncc3)nc3ccccc23)c1`, the Papp stood at 226 ×10⁻⁶ cm/s. Then `Cc1c(C(=O)NN2CCCCC2)nn(-c2ccc(Cl)cc2Cl)c1-c1ccc(Cl)cc1`, with > 1000 ×10⁻⁶ cm/s; and `O=C(NCc1ccncc1)c1nc(-c2cccnc2)c2cnccn12`, with 6.35 ×10⁻⁶ cm/s.

Turning to `Clc1ccc(-c2nnc(C3CCCCC3)o2)cc1`, the Papp was > 1000 ×10⁻⁶ cm/s. For the compound `CCN(CC)S(=O)(=O)c1ccc(N2CCOCC2)c(NC(=O)c2[nH]c(C)c(C(C)=O)c2C)c1`, the apparent permeability (Papp) is > 1000 ×10⁻⁶ cm/s. With `O=C(NC1CCCc2c1cnn2-c1ccc(O)cc1)c1ccccn1` (stereo not drawn), the Papp came to 587 ×10⁻⁶ cm/s. With `Cc1cccc(N(C)c2nc3ccccc3c3nnc(C)n23)c1` the figure was > 1000 ×10⁻⁶ cm/s.

The compound `NC(CO)(CO)CCc1ccc(Sc2cccc(OCc3ccccc3)c2)cc1Cl` registered a Papp of 210 ×10⁻⁶ cm/s.

`Cc1ccc(NC(=O)NCC2CCN(Cc3cccc(Cl)c3)CC2)cc1Cl`: the Papp was determined as 746 ×10⁻⁶ cm/s.

As to `CCOC(=O)c1ccc(N2C(=O)c3n[nH]c(-c4cccs4)c3C2c2ccc(OCC)cc2)cc1` (stereo not drawn), the apparent permeability (Papp) stood at 739 ×10⁻⁶ cm/s. On to `Cn1ccc2cc(-c3csc(N4CCC(C(N)=O)CC4)n3)ccc21`, for which the apparent permeability (Papp) was 823 ×10⁻⁶ cm/s. Compound `COc1ccccc1Nc1ccnc(N2CCN(C(=O)c3ccccc3Cl)CC2)n1` showed an apparent permeability coefficient (Papp) of 173 ×10⁻⁶ cm/s. Compared with the last compound, the Papp is about 4.8-fold lower. Then `O=C(c1cnccn1)N1CCC2(CCCN(C(c3ccccc3)c3ccccc3)C2)CC1`, with 3 ×10⁻⁶ cm/s; and `C[C@H]1[C@@H](CCC(=O)Nc2ccc(F)cc2)O[C@@H]2O[C@]3(C)CC[C@@H]4[C@H](C)CC[C@@H]1[C@@]24OO3`, with > 1000 ×10⁻⁶ cm/s; and `COc1cc2c(cc1OCCCN1CCCC1)N=C(N)C21CCC1`, with 6.08 ×10⁻⁶ cm/s. For `CCOc1ccc(CCNC(=O)c2cc3ncccc3n2Cc2cccc(C)c2)cc1OCC`, the Papp was > 1000 ×10⁻⁶ cm/s. Then `Cc1ccc(S(=O)(=O)Nc2ccccc2C(=O)Nc2ccc(-c3ccccc3)nc2)cc1`, with 54.3 ×10⁻⁶ cm/s; and `Cc1ccccc1CSc1nc2ncc(Br)cc2[nH]1`, with 497 ×10⁻⁶ cm/s; and `O=C(Nc1ccc(S(=O)(=O)Nc2nccs2)cc1)c1cc(-c2ccccc2)nc2ccccc12`, with 6.3 ×10⁻⁶ cm/s. With `O=C(NC1CCN(c2cc(-c3ccc(Cl)cc3)[nH]n2)C1)c1ccccc1` (stereo not drawn) the figure was 706 ×10⁻⁶ cm/s. With `COc1cccc(CNc2ccc(S(=O)(=O)Nc3cccc4ccncc34)cc2)c1O`, the Papp is > 1000 ×10⁻⁶ cm/s. With `CCN(CC)C(=O)c1ccc2c(c1)ncn2-c1cccc(C)c1` the figure was 889 ×10⁻⁶ cm/s; with `Cc1onc(-c2ccc(F)cc2)c1COc1ccc(C(=O)N2CCS(=O)(=O)CC2)cn1`, 258 ×10⁻⁶ cm/s. With `CCOC(=O)c1c[nH]c2c3c(ccc2c1=O)CCCC3` the figure was 434 ×10⁻⁶ cm/s; with `COC(=O)c1ccnc(-c2cc(C(=O)Nc3ccc(C4(N)CC4)cc3)ccn2)c1`, > 1000 ×10⁻⁶ cm/s. With `COc1ccc(NC(=O)c2[nH]c(C)c(C(C)=O)c2C)cc1[S+](=O)([O-])Nc1ccccc1C#N` the figure was 71 ×10⁻⁶ cm/s; with `CC(C)(O)Cn1c(NC(=O)c2ccc(-c3cn[nH]c3)s2)nc2cc(CN3CCOCC3)ccc21`, 368 ×10⁻⁶ cm/s.

As to `Cn1c(=O)c2c(-c3ccc(Cl)cc3)n(CCc3ccccc3)cc2n(C)c1=O`, the Papp was > 1000 ×10⁻⁶ cm/s. `NC(=O)C1CCN(c2nc(-c3ccccc3-c3ccccc3)cs2)CC1` displayed an apparent permeability (Papp) of 606 ×10⁻⁶ cm/s.

On to `Nc1ncnc2c1c(-c1cnc3[nH]ccc3c1)nn2C1CCCC1`, for which the apparent permeability (Papp) was > 1000 ×10⁻⁶ cm/s. Then `NC(=O)C1CCN(c2nc(-c3cccc4ccccc34)cs2)CC1`, with 641 ×10⁻⁶ cm/s; and `CCN1CCc2c(sc(NC(=O)Nc3ccc(Cl)c(Cl)c3)c2C(N)=O)C1`, with 435 ×10⁻⁶ cm/s. As to `CC[C@H](Nc1ncnc2nc[nH]c12)c1nc2cccc(F)c2c(=O)n1-c1ccccc1`, the apparent permeability (Papp) was found to be 169 ×10⁻⁶ cm/s. Then `Cc1ccccc1C(=O)N1CCC(C(=O)N2CCC(N3Cc4ccccc4C3=O)CC2)CC1`, with 50.8 ×10⁻⁶ cm/s. As to `c1ccc2c(N3CCOCC3)nc(-c3ccncc3)nc2c1`, the Papp was > 1000 ×10⁻⁶ cm/s. Then `COc1ccccc1-c1nnc2sc(-c3ccc(N(C)C)cc3)nn12`, with 278 ×10⁻⁶ cm/s; and `Cn1c(=O)c2[nH]c(=O)[nH]c2n(C)c1=O`, with 1.71 ×10⁻⁶ cm/s. With `C[C@H]1CN(C(=O)Nc2ccc(F)cc2)C[C@@H]1c1nc(-c2ccccc2)no1` the figure was > 1000 ×10⁻⁶ cm/s; with `COc1ccc(CCNC(=O)c2cc3c(=O)n4ccccc4nc3n(CCCN3CCOCC3)c2=N)cc1`, 394 ×10⁻⁶ cm/s. Regarding `CNC1(c2ccccc2Cl)CCCCC1=O` (stereo not drawn), the apparent permeability (Papp) was > 1000 ×10⁻⁶ cm/s. As to `Cc1ccc(S(=O)(=O)Nc2cnccc2C(=O)Nc2nc(-c3cccc(Cl)c3)cs2)cc1`, the Papp worked out at 38 ×10⁻⁶ cm/s. Then `Nc1scc2c(C(=O)O)nn(-c3ccccc3)c(=O)c12`, with < 1 ×10⁻⁶ cm/s; and `Cc1cc(CNC(=O)c2ccc3c(c2)n(CC2CC2)c(=O)n3C2CCCCC2)on1`, with 964 ×10⁻⁶ cm/s; and `Cc1ccnc(NC(=S)N2CC[C@@H](Nc3cccc(C(F)(F)F)c3)C2)c1`, with > 1000 ×10⁻⁶ cm/s. Then `CN(C)C(=O)c1nc(-c2ccc(Cl)cc2Cl)c2cnccn12`, with > 1000 ×10⁻⁶ cm/s; and `CN1C(=O)c2ccccc2[S@](=O)c2ccc(C(=O)NCCN3CCCC3)cc21`, with 94.2 ×10⁻⁶ cm/s. Regarding `CNC(=O)c1ccccc1Nc1nc(Nc2ccc(N3CCOCC3)cc2OC)ncc1Cl`, the Papp is > 1000 ×10⁻⁶ cm/s. With `N#Cc1ccc(N2N=C3c4ccc(C(=O)O)cc4CC[C@@H]3[C@@H]2C2CCCC2)cc1Cl` the figure was 272 ×10⁻⁶ cm/s; with `O=C1CCCC2=C1C(c1[nH]ncc1Cl)N=C(Nc1nc3c(Br)cccc3o1)N2` (stereo not drawn), 531 ×10⁻⁶ cm/s; with `CCNC(=O)c1coc(COc2ccc3c(c2)C(c2ccc(F)cc2)N(C(=O)CC(C)C)CC3)n1` (stereo not drawn), 938 ×10⁻⁶ cm/s.
